This is an account of results in patent publication US7067144B2, “Compositions and methods for systemic inhibition of cartilage degradation” (Omeros Corporation, priority 1998, dated 2006).

Data set [1] relates to rheumatoid synovial fibroblasts (RSF). The conditions noted are these: concentrations of 10–150 μM; IL-1 or IL-8 stimulated; cited from earlier work.
The test system of another data set is PKC. The settings on record: read-out: IC50 PKC inhibitory activity; cited from earlier work.
A further data set relates to experimental OA. The conditions noted are these: sustained systemic delivery; cited from earlier work.
For a further data set, the system named is NFκB activation. The settings on record: IL-1-stimulated RSF; cited from earlier work.
In a further data set the test system is paw inflammation. The conditions noted are these: dose of 50 mg/kg; cited from earlier work.
In data set [2] the test system is adjuvant-induced arthritis. The settings on record: p.o. at 30 and 60 mg/kg/day; cited from earlier work.
Data set [3] has as its system prostaglandin E2 production in synovial cultures. The data set can be described thus: PGE2 formation in cultured human synovial fibroblasts during overnight IL-1 priming. It is filed as cell-based. The settings on record: Fibroblast, co-incubation with IL-1 (10 U/ml), 16 hr, mean±SEM. How it is done: (§1) 1. Cell Culture. […] Experiments were performed on cells from passages 3–8. […] The growth medium was replaced twice weekly.
2. Experimental Treatments.
3. Measurement of Prostaglandin E2. […] Samples were stored at −80° until processing.
1. Data analysis. Immunoassays were routinely performed in duplicate aliquots from each culture. Experimental determinations were performed on duplicate or triplicate cultures. Each experiment was repeated in at least two cell lines. Nonlinear regression curve fitting and statistical analyses were performed using Graph-PAD Prism software (San Diego, Calif.).
The actions of ketoprofen, a cyclooxygenase inhibitor, to attenuate PGE2 formation were determined by co-incubation with IL-1 during prolonged exposure (16 hr); and by brief pre-incubation prior to a subsequent GPCR agonist challenge interval, as shown in FIG. 8.

Data set [4] shares this test system. The settings on record: histamine 100 μM or bradykinin 1 μM; overnight IL-1 (10 U/ml) priming.
Description: Cell Culture. Synovial tissue was obtained from osteoarthritis patients undergoing joint replacement surgery through the Clinical Research Center, MacNeal Hospital, and transported to the laboratory in Dulbecco's Modified Eagle's Medium (DMEM) containing penicillin (100 units/ml), streptomycin (100 μg/ml), and fungizone (0.25 μg/ml). The synovium was dissected and minced with scissors, and plated as explants in culture medium composed of DMEM containing L-glutamine (2 mM), heat inactivated fetal bovine serum (10% v/v), plus antibiotics. Cultures were housed at 37° C. in a humidified atmosphere of 5% CO2. Adherent synovial cells grew out of the explants within 2–3 weeks, and were passaged by trypsinization. Seed cultures were fed twice weekly and were passaged at confluency. Experiments were performed on cells from passages 3–8. Experimental cultures were plated into 35 mm dishes at a density of 7.5×10^3 cells/cm^2 in 2 ml culture medium. […]
Measurement of Prostaglandin E2. […] Aliquots of culture supernatant were analyzed by competitive binding radioimmunoassay as specified by the manufacturer (Sigma Chemical Co.), using an antibody with equivalent reactivity toward prostaglandins E2 and E1. For quantitation, a standard curve was prepared with each assay using fixed concentrations of [^3H]prostaglandin E2, and increasing concentrations of authentic competing prostaglandin E2.
Data set [5] concerns IL-6 production by synovial cultures. The experiment in a line: IL-6 production by synovial cultures stimulated with IL-1 plus GPCR ligands. The settings on record: 0.75 μM ketoprofen. It is filed as cell-based, human. How it is done:
FIG. 9 is a graphical representation of the effect of ketoprofen on IL-6 production by synovial cultures at 16 hours in the presence of the indicated concentrations of IL-1 plus the added G-protein coupled receptor ligands. Cultures were incubated for 16 hours with IL-1 at the indicated concentration (0.3, 1.0 and 3.0 pg/ml) in the absence and presence of 0.75 μM ketoprofen in experimental growth medium with one of the following additional receptor ligands: 1) isoproterenol (ISO) at 1.0 μM to activate the camp pathway, or 2) histamine (HIS) at 100 μM to activate the IP3/calcium pathway. Culture supernatants were collected and replaced with fresh media aliquots containing the same agonist additions at 8 hour intervals. Following treatment, the supernatant medium corresponding to the treatment interval from 8 to 16 hours was collected and analyzed for IL-6.
as §1
4. Measurement of IL-6. Production of the cytokine, IL-6, was also measured in aliquots of supernatant culture media which had been stored frozen at −80° C. IL-6 was measured by sandwich ELISA with alkaline phosphatase detection as described by the manufacturer (Pharmingen) and quantitated using standard curves prepared with the respective pure recombinant human cytokines. […]

Data set [6] deals with IL-8 production by synoviocyte cultures. The experiment in a line: IL-8 production by synoviocyte cultures in response to IL-1. It counts as cell-based, human. How it is done:
as §1
The kinetics of induction of interleukin-6 in response to stimulation with IL-1 are described. Synoviocyte cultures were exposed to the indicated treatments with IL-1 plus either histamine to activate signaling through inositol trisphosphate (InsP3)/protein kinase C pathway or isproterenol to activate increases in intracellular cAMP. Production of PGE2, IL-6, and IL-8 were measured in the culture supernatants following 1, 2, 4, 6, and 24 hr treatments. In this experiment, each treatment interval was performed in a separate culture. […] IL-1 also produced a significant elevation of IL-8 (2000 pg/ml), which was first measurable at 6 hr of treatment.
The effect of ketoprofen on the induction of cytokine production by IL-1 and GPCR agonists was examined. The protocol also tested the effects of IL-1 concentration dependence on the IL-6 steady state induction. Synoviocyte cultures were exposed to indicated concentrations of IL-1 and GPCR agonists. Culture supernatants were collected and replaced with fresh media aliquots containing the same agonist additions at 8-hr intervals. PGE2, IL-6, and IL-8 in the supernatants were assayed as described.

For data set [7] the following is noted: in vivo, cited from earlier work.
For data set [8], the target named is T1, Type I IL-1R (Homo sapiens, UniProt P14778).
T1 sequence (P14778 18-569): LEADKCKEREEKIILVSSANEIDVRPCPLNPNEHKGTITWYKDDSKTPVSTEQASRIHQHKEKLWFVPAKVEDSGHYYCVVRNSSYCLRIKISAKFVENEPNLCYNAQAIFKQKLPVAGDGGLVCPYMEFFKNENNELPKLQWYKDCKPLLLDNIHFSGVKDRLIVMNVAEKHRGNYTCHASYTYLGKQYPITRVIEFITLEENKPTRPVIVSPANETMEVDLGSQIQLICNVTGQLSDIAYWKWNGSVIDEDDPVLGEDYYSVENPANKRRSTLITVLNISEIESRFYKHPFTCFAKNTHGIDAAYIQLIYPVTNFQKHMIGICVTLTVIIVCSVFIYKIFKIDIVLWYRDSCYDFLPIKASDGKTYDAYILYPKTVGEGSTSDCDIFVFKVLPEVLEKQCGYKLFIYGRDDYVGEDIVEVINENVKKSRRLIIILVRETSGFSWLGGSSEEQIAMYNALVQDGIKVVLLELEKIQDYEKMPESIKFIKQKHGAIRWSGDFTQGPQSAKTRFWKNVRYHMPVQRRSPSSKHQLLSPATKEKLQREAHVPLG
The settings on record: in vitro efficacy; cited from earlier work.

The next data set addresses BMP-4 receptors. The settings on record: 125I-BMP-4; read-out: apparent dissociation constant; cited from earlier work.
For data set [9], the target named is T1, Type I IL-1R. The conditions noted are these: cells that express the Type I IL-1R; cited from earlier work.

Regarding `c1cnc2c(c1)ccc1cccnc12` [1,10-o-phenanthroline], in [1], the “effect on penetration of cartilage by RSF cells” value is “substantially inhibited”.

In general, IC50 refers to the point on the concentration scale where inhibition reaches its midpoint. For the molecule `Cn1c2ccccc2c2c3c(c4c5ccccc5n(CCC#N)c4c21)CNC3=O` [G-6203], in the data set on PKC, the IC50 was 2000 to 10000 nM.

Take `CC(=N)NCCCC[C@H](N)C(=O)O` [L-NIL]: in the data set on experimental OA, the “effect on progression of experimental OA” value is listed as “reduces the progression of experimental OA”.

Consider `CN(C)C[C@H]1CCn2c(c(C3=C(c4cn(C)c5ccccc45)C(=O)NC3=O)c3ccccc32)C1` [RO 32-0432], for which the “activity on PGE2 production” value in the data set with NFκB activation is “inactive”.

Consider `C[S+]([O-])c1ccc(-c2nc(-c3ccc(F)cc3)c(-c3ccncc3)[nH]2)cc1` (stereo not shown) [SB203580, 4-(4-fluorophenyl)-2-(4-methylsulfinylphenyl)-5-(4-pyridyl)imidazole], for which the “effect on paw inflammation” value with paw inflammation is recorded as “significant inhibition of paw inflammation”. Besides, in [2], the antiarthritic activity entry is recorded as “Antiarthritic activity”.

In the case of `O=C1CCNC(=O)c2[nH]ccc21` [aldisine], in the data set on NFκB activation, the “activity on PGE2 production” value is “inactive”.

Take `CCc1cccc2c3c([nH]c12)C(CC)(CC(=O)O)OCC3` (stereo not shown) [etodolac]: the IC50 in [3] came out at 15.2 ± 4.6 nM.

As for `NCCc1c[nH]cn1` [histamine], the “fold increase in PGE2 production compared to IL-1 primed cells receiving no GPCR agonist” value in data set [4] is on record as 5–10 fold.

In the case of `COc1ccc2c(c1)c(CC(=O)O)c(C)n2C(=O)c1ccc(Cl)cc1` [indomethacin], the half-maximal inhibitory concentration (IC50) in data set [3] was 3.2 ± 1.5 nM.

A word on the inhibition: it is the share of the control response that was lost under treatment. Turning to `CC(C(=O)O)c1cccc(C(=O)c2ccccc2)c1` (stereo not shown) [ketoprofen], the concentration for half-maximal inhibition (IC50) in [3] turned out to be 4.5 ± 0.8 nM. For the same molecule, the “effect on IL-6 production in histamine or isoproterenol/IL-1 co-stimulated samples” value in data set [5] (histamine 100 μM or isoproterenol 1.0 μM plus IL-1) was “inhibited”. For the same molecule, the inhibition at 0.75 µM in [5] (Homo sapiens, 1.0 pg/ml IL-1, 16 hr, read-out: inhibition of IL-1-elicited IL-6 production) is at most 50%. In data set [6], the “effect on IL-8 production in response to IL-1” value is “reduces”.

Consider `O=C(c1ccccc1)c1ccc2n1CCC2C(=O)O` (stereo not shown) [ketorolac], for which the IC50 in [3] was found to be 2.2 ± 0.4 nM.

As for `CC(C)C[C@H](NP(=O)(O)O[C@@H]1O[C@@H](C)[C@H](O)[C@@H](O)[C@H]1O)C(=O)N[C@@H](Cc1c[nH]c2ccccc12)C(=O)O` [phosphoramidon], in [1], the “effect on penetration of cartilage by RSF cells” value is recorded as “substantially inhibited”.

As for Ac-FEWTPGWYQJY-NH2 [AF11567], the plasma half-life in data set [7] is 2.3 to 2.6 h.

As to Ac-FEWTPGWYQJYALPL-NH2 [AF12198], the half-inhibitory concentration (IC50) at Type I IL-1R [8] was 0.5 to 2 nM. In [7] (iv), the metabolism result is reported as “rapid metabolism”.

In the case of “BMP-4: bone morphogenetic protein, member of the TGF-β superfamily”, on BMP-4 receptors, the Kd is 0.11 nM.

As for “IL-1Ra: naturally occurring secreted, soluble ligand that binds to IL-1 receptors; 22 kD protein”, the “molar excess required to inhibit IL-1 biological responses” value with Type I IL-1R [9] was 10–100 fold.

calphostin C: the IC50 with PKC was 50000 nM.
